{
  "source": "patent US10058577B2",
  "about": "“Thermo-stable strains, products and methods thereof” (TRIPHASE PHARMACEUTICALS PVT. LTD., priority 2014, dated 2018)",
  "key": {"[1]": {"system": "Lactobacillus plantarum TSP-Lp1", "assay": "Antibiotic susceptibility by disk diffusion method", "format": "cell-based", "settings": "for zone of inhibition at 30 µg/disc: TSPLP1, 30 μg; for zone of inhibition at 10 µg/disc: TSPLP1, 10 μg; for zone of inhibition at 5 µg/disc: TSPLP1, 5 μg", "procedure": "(§1) In order to ascertain the sensitivity of the thermostable strains in the food products towards antibiotics, Antibiotic susceptibility profile for Lactobacillus acidophilus is created by disk diffusion method. The susceptibility criteria used is established by Charteris et al. The Lactobacillus acidophilus is grown in Man Rogosa Sharpe Agar (MRSA).\nThe same set of study as the previous example is conducted using Lactobacillus plantarum strain of the present disclosure and the results for the study are depicted in Table No. 13 as below. The susceptibility criteria used is established by Charteris et al. The Lactobacillus acidophilus is grown in Man Rogosa Sharpe Agar, […]"}, "[2]": {"system": "Lactobacillus acidophilus TSP-La1", "assay": "Antibiotic susceptibility by disk diffusion method", "format": "cell-based", "settings": "for zone of inhibition at 30 µg/disc: TSPLA1, 30 μg; for zone of inhibition at 10 µg/disc: TSPLA1, 10 μg; for zone of inhibition at 5 µg/disc: TSPLA1, 5 μg", "procedure": "as §1\n67.15 grams is suspended in 1000 ml distilled water and heated to boiling to dissolve the medium completely. It is sterilized by autoclaving at 15 lbs pressure (121° C.) for 20 minutes, mixed well and poured into sterile Petri plates.\nThe concentration of the tested antibiotics has been included depending upon their minimum inhibitory concentrations."}, "[3]": {"settings": "Lactiplantibacillus plantarum, read-out: MIC Results"}, "[4]": {"settings": "Lactobacillus acidophilus, read-out: MIC Results"}},
  "data": [
    {"compound": "CC1(C)S[C@@H]2[C@H](NC(=O)[C@H](N)c3ccc(O)cc3)C(=O)N2[C@H]1C(=O)O", "note": "[Amoxicillin]", "values": [
      {"measurement": "Resistant/Sensitive", "setting": "[1]; 30 μg", "result": "Sensitive"},
      {"measurement": "zone of inhibition at 30 µg/disc", "setting": "[1]; [3]", "result": 39, "unit": "mm"},
      {"measurement": "Resistant/Sensitive", "setting": "[2]; 30 μg", "result": "Sensitive"},
      {"measurement": "zone of inhibition at 30 µg/disc", "setting": "[2]; [4]", "result": 32, "unit": "mm"}
    ]},
    {"compound": "CC1(C)S[C@@H]2[C@H](NC(=O)[C@H](N)c3ccccc3)C(=O)N2[C@H]1C(=O)O", "note": "[Ampicillin]", "values": [
      {"measurement": "MIC Results", "setting": "[1]; 10 μg", "result": "No Zone"},
      {"measurement": "Resistant/Sensitive", "setting": "[1]; 10 μg", "result": "Resistant"},
      {"measurement": "Resistant/Sensitive", "setting": "[2]; 10 μg", "result": "Resistant"},
      {"measurement": "zone of inhibition at 10 µg/disc", "setting": "[2]; [4]", "result": 10, "unit": "mm"}
    ]},
    {"compound": "CC(=O)OCC1=C(C(=O)O)N2C(=O)[C@@H](NC(=O)Cc3cccs3)[C@H]2SC1", "note": "[Cephalothin]", "values": [
      {"measurement": "Resistant/Sensitive", "setting": "[1]; 30 μg", "result": "Sensitive"},
      {"measurement": "zone of inhibition at 30 µg/disc", "setting": "[1]; [3]", "result": 23, "unit": "mm"},
      {"measurement": "Resistant/Sensitive", "setting": "[2]; 30 μg", "result": "Sensitive"},
      {"measurement": "zone of inhibition at 30 µg/disc", "setting": "[2]; [4]", "result": 25, "unit": "mm"}
    ]},
    {"compound": "O=C(N[C@H](CO)[C@H](O)c1ccc([N+](=O)[O-])cc1)C(Cl)Cl", "note": "[Chloramphenicol]", "values": [
      {"measurement": "Resistant/Sensitive", "setting": "[1]; 30 μg", "result": "Sensitive"},
      {"measurement": "zone of inhibition at 30 µg/disc", "setting": "[1]; [3]", "result": 31, "unit": "mm"},
      {"measurement": "Resistant/Sensitive", "setting": "[2]; 30 μg", "result": "Sensitive"},
      {"measurement": "zone of inhibition at 30 µg/disc", "setting": "[2]; [4]", "result": 29, "unit": "mm"}
    ]},
    {"compound": "O=C(O)c1cn(C2CC2)c2cc(N3CCNCC3)c(F)cc2c1=O", "note": "[Ciprofloxacin]", "values": [
      {"measurement": "Resistant/Sensitive", "setting": "[1]; 10 μg", "result": "Sensitive"},
      {"measurement": "zone of inhibition at 10 µg/disc", "setting": "[1]; [3]", "result": 31, "unit": "mm"}
    ]},
    {"compound": "CCC[C@@H]1C[C@@H](C(=O)N[C@@H]([C@H]2O[C@H](SC)[C@H](O)[C@@H](O)[C@H]2O)[C@H](C)Cl)N(C)C1", "note": "[Clindamycin]", "values": [
      {"measurement": "zone of inhibition at 2 µg/disc", "setting": "[1]; Lactiplantibacillus plantarum, TSPLP1, 2 μg, read-out: MIC Results", "result": 34, "unit": "mm"},
      {"measurement": "zone of inhibition at 2 µg/disc", "setting": "[2]; Lactobacillus acidophilus, TSPLA1, 2 μg, read-out: MIC Results", "result": 31, "unit": "mm"}
    ]},
    {"compound": "CC[C@H]1OC(=O)[C@H](C)[C@@H](O[C@H]2C[C@@](C)(OC)[C@@H](O)[C@H](C)O2)[C@H](C)[C@@H](O[C@@H]2O[C@H](C)C[C@H](N(C)C)[C@H]2O)[C@](C)(O)C[C@@H](C)C(=O)[C@H](C)[C@@H](O)[C@]1(C)O", "note": "[Erythromycin]", "values": [
      {"measurement": "Resistant/Sensitive", "setting": "[1]; 15 μg", "result": "Sensitive"},
      {"measurement": "zone of inhibition at 15 µg/disc", "setting": "[1]; Lactiplantibacillus plantarum, TSPLP1, 15 μg, read-out: MIC Results", "result": 14, "unit": "mm"},
      {"measurement": "Resistant/Sensitive", "setting": "[2]; 15 μg", "result": "Resistant"},
      {"measurement": "zone of inhibition at 15 µg/disc", "setting": "[2]; Lactobacillus acidophilus, TSPLA1, 15 μg, read-out: MIC Results", "result": 14, "unit": "mm"}
    ]},
    {"compound": "COc1cccc(OC)c1C(=O)N[C@@H]1C(=O)N2[C@@H]1SC(C)(C)[C@@H]2C(=O)O", "note": "[Methicillin]", "values": [
      {"measurement": "Resistant/Sensitive", "setting": "[1]; 5 μg", "result": "Sensitive"},
      {"measurement": "zone of inhibition at 5 µg/disc", "setting": "[1]; [3]", "result": 15, "unit": "mm"},
      {"measurement": "Resistant/Sensitive", "setting": "[2]; 5 μg", "result": "Sensitive"},
      {"measurement": "zone of inhibition at 5 µg/disc", "setting": "[2]; [4]", "result": 30, "unit": "mm"}
    ]},
    {"compound": "Cc1onc(-c2ccccc2)c1C(=O)N[C@@H]1C(=O)N2[C@@H]1SC(C)(C)[C@@H]2C(=O)O", "note": "[Oxacillin]", "values": [
      {"measurement": "MIC Results", "setting": "[1]; 1 μg", "result": "No Zone"},
      {"measurement": "Resistant/Sensitive", "setting": "[1]; 1 μg", "result": "Resistant"},
      {"measurement": "MIC Results", "setting": "[2]; 1 μg", "result": "No Zone"},
      {"measurement": "Resistant/Sensitive", "setting": "[2]; 1 μg", "result": "Resistant"}
    ]},
    {"compound": "CO[C@H]1/C=C/O[C@@]2(C)Oc3c(C)c(O)c4c(O)c(c(/C=N/N5CCN(C)CC5)c(O)c4c3C2=O)NC(=O)/C(C)=C\\C=C\\[C@H](C)[C@H](O)[C@@H](C)[C@@H](O)[C@@H](C)[C@H](OC(C)=O)[C@@H]1C", "note": "[Rifampicin]", "values": [
      {"measurement": "zone of inhibition at 5 µg/disc", "setting": "[1]; [3]", "result": 43, "unit": "mm"},
      {"measurement": "zone of inhibition at 5 µg/disc", "setting": "[2]; [4]", "result": 35, "unit": "mm"}
    ]},
    {"compound": "[H]/N=C(/N)N[C@H]1[C@H](O)[C@@H](O)[C@H](O[C@@H]2O[C@@H](C)[C@](O)(C=O)[C@H]2O[C@@H]2O[C@@H](CO)[C@H](O)[C@@H](O)[C@@H]2NC)[C@@H](N/C(N)=N\\[H])[C@@H]1O", "note": "[Streptomycin]", "values": [
      {"measurement": "Resistant/Sensitive", "setting": "[1]; 10 μg", "result": "Sensitive"},
      {"measurement": "zone of inhibition at 10 µg/disc", "setting": "[1]; [3]", "result": 20, "unit": "mm"},
      {"measurement": "Resistant/Sensitive", "setting": "[2]; 10 μg", "result": "Sensitive"},
      {"measurement": "zone of inhibition at 10 µg/disc", "setting": "[2]; [4]", "result": 18, "unit": "mm"}
    ]},
    {"compound": "CN(C)[C@@H]1C(O)=C(C(N)=O)C(=O)[C@@]2(O)C(O)=C3C(=O)c4c(O)cccc4[C@@](C)(O)[C@H]3C[C@@H]12", "note": "[Tetracycline]", "values": [
      {"measurement": "zone of inhibition at 30 µg/disc", "setting": "[1]; [3]", "result": 14, "unit": "mm"},
      {"measurement": "zone of inhibition at 30 µg/disc", "setting": "[2]; [4]", "result": 11, "unit": "mm"}
    ]},
    {"compound": "CN[C@H](CC(C)C)C(=O)N[C@H]1C(=O)N[C@@H](CC(N)=O)C(=O)N[C@H]2C(=O)N[C@H]3C(=O)N[C@H](C(=O)N[C@H](C(=O)O)c4cc(O)cc(O)c4-c4cc3ccc4O)[C@H](O)c3ccc(c(Cl)c3)Oc3cc2cc(c3O[C@@H]2O[C@H](CO)[C@@H](O)[C@H](O)[C@H]2O[C@H]2C[C@](C)(N)[C@H](O)[C@H](C)O2)Oc2ccc(cc2Cl)[C@H]1O", "note": "[Vancomycin]", "values": [
      {"measurement": "MIC Results", "setting": "[1]; 30 μg", "result": "No Zone"},
      {"measurement": "Resistant/Sensitive", "setting": "[1]; 30 μg", "result": "Resistant"},
      {"measurement": "MIC Results", "setting": "[2]; 30 μg", "result": "No Zone"},
      {"measurement": "Resistant/Sensitive", "setting": "[2]; 30 μg", "result": "Resistant"}
    ]},
    {"compound": "Gentamycin", "values": [
      {"measurement": "MIC Results", "setting": "[1]; 10 μg", "result": 8, "unit": "mm"},
      {"measurement": "Resistant/Sensitive", "setting": "[1]; 10 μg", "result": "Resistant"},
      {"measurement": "MIC Results", "setting": "[2]; 10 μg", "result": 10, "unit": "mm"},
      {"measurement": "Resistant/Sensitive", "setting": "[2]; 10 μg", "result": "Resistant"}
    ]}
  ]
}
